# Source: ChEMBL document CHEMBL4334474, “Friomaramide, a Highly Modified Linear Hexapeptide from an Antarctic Sponge, Inhibits Plasmodium falciparum Liver-Stage Development” (J Nat Prod, 2019)
# Active and inactive are the calls of the source. The rule behind the calls is not given here. Non-standard residues stand in square brackets, D forms with d. Residues, ends and D or L forms follow the SMILES beside them. *: point of attachment. NMeI = CC[C@H](C)[C@H](NC)C(=O)O; dNMeF = CN[C@H](Cc1ccccc1)C(=O)O; X1 = C(=C/c1c[nH]c2ccccc12)/N*; NMeV = CN[C@H](C(=O)O)C(C)C; NMeA = CN[C@@H](C)C(=O)O
# Tests used:
# Plasmodium falciparum [1] = test: Antimalarial activity against Plasmodium falciparum liver stage form infected in human primary hepatocytes assessed as reduction in viability at 6.1 uM incubated for 3 days followed by compound wash and measured on day 6 relative to control; format: functional
# Hepatocyte [2] = test: Cytotoxicity against human primary hepatocytes at 6.1 uM; format: cell-based
# Plasmodium falciparum [3] = test: Antimalarial activity against Plasmodium falciparum liver stage form infected in human primary hepatocytes assessed as reduction in viability at 19.3 uM incubated for 3 days followed by compound wash and measured on day 6 relative to control; format: functional
# Hepatocyte [4] = test: Cytotoxicity against human primary hepatocytes at 19.3 uM; format: cell-based
# Plasmodium falciparum [5] = test: Antimalarial activity against Plasmodium falciparum liver stage form infected in human primary hepatocytes assessed as reduction in viability at 17.6 uM incubated for 3 days followed by compound wash and measured on day 6; format: functional, organism-based
# Hepatocyte [6] = test: Cytotoxicity against human primary hepatocytes at 17.6 uM; format: cell-based
structure (smiles),measurement,setting,value
CC[C@H](C)[C@@H](C(=O)N/C=C\c1c[nH]c2ccccc12)N(C)C(=O)[C@H]([C@@H](C)CC)N(C)C(=O)[C@H](C)N(C)C(=O)[C@H](C(C)C)N(C)C(=O)[C@@H](Cc1ccccc1)N(C)C(C)=O (Ac-[dNMeF][NMeV][NMeA][NMeI][NMeI]-X1),inhibition at 6.1 µM,Plasmodium falciparum [1],90 to 92%
same,Activity,Hepatocyte [2],Non-Toxic
COc1cc(NC(C)CCCN)c2ncccc2c1 (stereo unspecified) [PRIMAQUINE],inhibition at 19.3 µM,Plasmodium falciparum [3],> 90%
same,Activity,Hepatocyte [4],Non-Toxic
C[C@H]1[C@@H](O)O[C@@H]2O[C@@]3(C)CC[C@H]4[C@H](C)CC[C@@H]1[C@@]24OO3 [ARTENIMOL],inhibition,Plasmodium falciparum [5],inactive
same,Activity,Hepatocyte [6],Non-Toxic
